Test results reported in the NIST ThermoML archive (doi:10.1016/j.fluid.2014.11.020).
± gives the expanded uncertainty stated by the source.

Experiment: activity coefficient (dimensionless); of the first substance listed, at infinite dilution; xn = mol fraction of the nth substance listed
Conditions: Liquid, Chromatography, x1 = 0

| Structure (SMILES) | activity coefficient (323.15 K) | activity coefficient (333.15 K) | activity coefficient (343.15 K) |
| --- | --- | --- | --- |
| CCCCCCCCCC [decane] + CCCOC[n+]1ccc(N(C)C)cc1.O=S(=O)([N-]S(=O)(=O)C(F)(F)F)C(F)(F)F | 41.1 ± 2.8 | 38.5 ± 2.6 | 34.5 ± 2.4 |
| CCCCCCCCCC [decane] + CCCOC[n+]1ccn(C)c1.F[B-](F)(F)F | 635 ± 44 | 573 ± 39 | 500 ± 34 |
| CCCCCCCCCC [decane] + CCCOC[n+]1ccn(C)c1.N#C[N-]C#N | 372 ± 26 | 356 ± 24 | 287 ± 20 |
| CCCCCCCCCC [decane] + CCCOC[n+]1ccn(C)c1.O=S(=O)([N-]S(=O)(=O)C(F)(F)F)C(F)(F)F | 69.6 ± 4.8 | 60.5 ± 4.2 | 53 ± 3.6 |
| CCCCCCCCCC [decane] + CCCOC[n+]1ccn(Cc2ccccc2)c1.F[B-](F)(F)F | 244 ± 17 | 220 ± 15 | 178 ± 12 |
| CCCCCCCCCC [decane] + CCCOC[n+]1ccn(Cc2ccccc2)c1.N#C[N-]C#N | 144 ± 9.9 | 123 ± 8.4 | 105 ± 7.2 |
| CCCCCCCCCC [decane] + CCCOC[n+]1ccn(Cc2ccccc2)c1.O=S(=O)([N-]S(=O)(=O)C(F)(F)F)C(F)(F)F | 28.8 ± 2 | 23.2 ± 1.6 | 21.1 ± 1.4 |
| CCCCCCCCCC [decane] + CN(C)c1cc[n+](COCCCOC[n+]2ccc(N(C)C)cc2)cc1.O=S(=O)([N-]S(=O)(=O)C(F)(F)F)C(F)(F)F.O=S(=O)([N-]S(=O)(=O)C(F)(F)F)C(F)(F)F | 79.5 ± 5.5 | 71 ± 4.9 | 63 ± 4.3 |
| CCCCCCCCCC [decane] + Cn1cc[n+](COCCCOC[n+]2ccn(C)c2)c1.O=S(=O)([N-]S(=O)(=O)C(F)(F)F)C(F)(F)F.O=S(=O)([N-]S(=O)(=O)C(F)(F)F)C(F)(F)F | 141 ± 9.7 | 132 ± 9 | 109 ± 7.5 |
| CCCCCCCCCC [decane] + N#C[N-]C#N.N#C[N-]C#N.c1ccc(Cn2cc[n+](COCCCOC[n+]3ccn(Cc4ccccc4)c3)c2)cc1 | 420 ± 29 | 371 ± 25 | 321 ± 22 |
| ClCCl [dichloromethane] + CCCCCCCCn1cc[n+](COCCC)c1C.N#C[N-]C#N | 0.34 ± 0.03 | 0.37 ± 0.03 | 0.37 ± 0.03 |
| ClCCl [dichloromethane] + CCCCCCCCn1cc[n+](COCCC)c1C.O=S(=O)([N-]S(=O)(=O)C(F)(F)F)C(F)(F)F | 0.42 ± 0.04 | 0.43 ± 0.04 | 0.48 ± 0.04 |
| ClCCl [dichloromethane] + CCCCCCCCn1cc[n+](COCCCOC[n+]2ccn(CCCCCCCC)c2C)c1C.N#C[N-]C#N.N#C[N-]C#N | 0.28 ± 0.03 | 0.29 ± 0.03 | 0.31 ± 0.03 |
| ClCCl [dichloromethane] + CCCCCCCCn1cc[n+](COCCCOC[n+]2ccn(CCCCCCCC)c2C)c1C.O=S(=O)([N-]S(=O)(=O)C(F)(F)F)C(F)(F)F.O=S(=O)([N-]S(=O)(=O)C(F)(F)F)C(F)(F)F | 0.3 ± 0.03 | 0.3 ± 0.03 | 0.32 ± 0.03 |
| ClCCl [dichloromethane] + CCCOC[n+]1ccc(N(C)C)cc1.O=S(=O)([N-]S(=O)(=O)C(F)(F)F)C(F)(F)F | 0.57 ± 0.04 | 0.62 ± 0.04 | 0.63 ± 0.04 |
| ClCCl [dichloromethane] + CCCOC[n+]1ccn(C)c1.F[B-](F)(F)F | 1.07 ± 0.07 | 1.16 ± 0.07 | 1.19 ± 0.08 |
| ClCCl [dichloromethane] + CCCOC[n+]1ccn(C)c1.N#C[N-]C#N | 0.69 ± 0.05 | 0.74 ± 0.05 | 0.78 ± 0.05 |
| ClCCl [dichloromethane] + CCCOC[n+]1ccn(C)c1.O=S(=O)([N-]S(=O)(=O)C(F)(F)F)C(F)(F)F | 0.71 ± 0.05 | 0.79 ± 0.05 | 0.75 ± 0.05 |
| ClCCl [dichloromethane] + CCCOC[n+]1ccn(Cc2ccccc2)c1.F[B-](F)(F)F | 0.78 ± 0.05 | 0.78 ± 0.05 | 0.79 ± 0.05 |
| ClCCl [dichloromethane] + CCCOC[n+]1ccn(Cc2ccccc2)c1.N#C[N-]C#N | 0.58 ± 0.04 | 0.63 ± 0.04 | 0.68 ± 0.05 |
| ClCCl [dichloromethane] + CCCOC[n+]1ccn(Cc2ccccc2)c1.O=S(=O)([N-]S(=O)(=O)C(F)(F)F)C(F)(F)F | 0.52 ± 0.04 | 0.44 ± 0.04 | 0.37 ± 0.03 |
| ClCCl [dichloromethane] + CN(C)c1cc[n+](COCCCOC[n+]2ccc(N(C)C)cc2)cc1.O=S(=O)([N-]S(=O)(=O)C(F)(F)F)C(F)(F)F.O=S(=O)([N-]S(=O)(=O)C(F)(F)F)C(F)(F)F | 0.52 ± 0.04 | 0.54 ± 0.04 | 0.56 ± 0.04 |
